The subject of data set [1] is pS6K. The data set is described as follows: S6K phosphorylation western blot in SK-N-Be2 cells. The format is cell-based, human. Particulars: 10 μM and 20 μM, 24 hours. The text has this: (§1) Membranes were blocked using Odyssey Blocking Buffer (LI-COR) for 1 hr at room temperature. […] Primary antibodies used in these studies include: MycN (CST; 1:500 dilution), Actin (SCBT; 1:2000 dil.), cMYC (CST; 1:500 dil.), pAKT (S473; CST; 1:500 dil.), AKT (CST; 1:2000), pP70 (T389; CST; 1:1000) P70 (CST; 1:1000).
We then tested whether mTORC2 complex was disrupted by isopomiferin treatment. […] to enable translation. We tested whether phosphorylation of S6K was inhibited by isopomiferin by treating SK-N-Be2 cells to 10 μM and 20 μM isopomiferin for 24 hours and blotting for pS6K, using total S6K protein as a loading control. […] We then tested whether this was consistent across cell lines by performing a similar experiment in an NSCLC cell line, A549.
For orientation: In western blotting, separated proteins are transferred to a membrane and probed.

A short description of data set [2]: Solubility. The format is physicochemical.
Data set [3] deals with pAKT (Ser473). In words: pAKT (Ser473) western blot in SK-N-Be2 cells. The format is cell-based, human. Particulars: growth factor induced.
From the text: as §1
We first tested whether isopomiferin disrupted […] signaling in NBL by treating SK-N-Be2 cells to isopomiferin and blotting for pAKT abundance. Treatment with […] (EGF) induces pAKT1 through mTOR signaling. We tested whether isopomiferin had the ability to disrupt mTOR signaling by pre-treating cells with isopomiferin for 2 hrs, following which cells were treated with 10 ng/ml EGF for 30 minutes to induce pAKT1. […] Total AKT abundance was used as a loading control to confirm that isopomiferin was simply not suppressing expression of AKT abundance.

Data set [4] relates to MYC targets gene set. The data set is described as follows: GSEA of Cancer Hallmarks gene sets from PLATE-Seq profiles. The format is cell-based, human. Particulars: SK-N-Be2 cells, 3.3 μM and 10 μM, 6 h and 24 h. The text has this:
We next performed gene set analysis using PLATE-Seq expression profiling by binning transcripts according to the Cancer Hallmarks gene sets found at the molecular signatures database. Curated by the Broad Institute, these fifty hallmark pathway sets represent well defined cancer processes or states associated with cancer malignancies. […] Given that isopomiferin disrupted the MycN^AMP regulatory module, it was expected that this target would be suppressed by isopomiferin. We sought to understand how the compound is affecting cells by assessing whether any other pathways are affected by the compound. […] E2F […] regulators act in a feedback loop with MycN and also regulate cell cycle progression (Strieder and Lutz 2003; Li et al. 2014), so this is an interesting finding that will be further investigated. MycN enables cancer cells to evade the immune system by suppressing antigens that can act as immune attractants necessary for detection and destruction of cancer cells (Brandetti et al. 2017; Topper et al. 2017). It is possible that enrichment of the “Inflammatory Response” gene set is a result of desuppression of these targets as a result of MycN inhibition.
We sought to investigate biological pathways affected by isopomiferin by performing pathway enrichment analysis on a set of 50 hallmarks of cancer. […]

Data set [5] deals with MYCN transcript. The data set is described as follows: RT-qPCR of MYCN transcript in SK-N-Be2 cells. Particulars: 15 μM, sampled 0, 3, 6, 9, 24 hrs. The format is cell-based, human. The procedure:
Reverse transcription quantitative polymerase chain reaction (RT-qPCR) was used to quantify transcript abundance of genes of interest. Total RNA was isolated from cells using the Qiaquick RNeasy isolation kit following manufacturer's instruction (QIAGEN). RNA quality and abundance was measured using a nanodrop spectrophotometer. A total of 2 μg RNA was used as a template for reverse transcription reactions. cDNA synthesis was performed using TaqMan reverse transcriptase following the manufacturer's instructions, using both oligod(T) and random hexamers as primers for RT reactions. RNAse treatment of cDNA removed any residual RNA in cDNA samples. cDNA samples were diluted 10-fold into nuclease-free dH2O, and used as the template for quantitative PCR reactions were performed in a Viia7 […] thermocycler using SYBR green and gene-specific primers (Table 1). qPCR reactions were performed using the Viia7 Real-Time PCR system (Applied Biosystems), and relative transcript abundance evaluated using the deltaCT method, using the GAPDH housekeeping gene as normalization control.
(In general: Quantitative PCR measures a nucleic acid by following its amplification.)

The nature of data set [6]: Stability in mouse plasma. The format is in vitro ADME. Particulars: 4 h incubation, 20 μM. The procedure:
Mouse plasma was diluted with 100 mM PBS buffer at 7.4 pH and at a 1:1 ratio, and warmed to 37° C. Test compounds were added to the plasma solution at 20 μM and incubated for the indicated time point. Reactions was quenched by aliquoting 15 μL of solution into 60 μL ice-cold acetonitrile containing an internal standard. Compounds were quantified by LC-MS, as detailed above.

Data set [7] concerns PARP and caspase3 cleavage. In words: Western blot of apoptosis hallmarks (cleaved PARP, cleaved caspase 3). Particulars: SK-N-Be2 cells, 48 hrs. The format is cell-based, human.
From the text: as §1

Data set [8] concerns MYCN MR signature. In words: RNASeq with VIPER analysis of the MYCN MR signature. The format is cell-based, human. Particulars: SK-N-Be2 cells. The method, then: To uncover changes in gene expression that underpin responses to pomiferin and isopomiferin, RNASeq analysis of SK-N-Be2 cells was performed following treatment with the two active prenylated isoflavonoids as well as a null analog that served as a negative control. SK-N-Be2 cells were treated with either 3 μM or 10 μM of isopomiferin or pomiferin and sampled after 3 h and 6 h. […] By comparing the active to the null analogs, downstream analyses can focus on changes in gene expression associated with the MYCN signature.
Intriguingly, only six MRs were suppressed by pomiferin and isopomiferin, while being unaffected by the null analog dimethyl pomiferin (FIG. 20B).

Data set [9] deals with cancer cell lines and non-transformed cells. Particulars: Darji et al. 2013; Son et al. 2007; cited from earlier work.
Data set [10] concerns mutant isoform of CK2a1. In words: Cell viability after expression of mutant CK2a1 isoform. Particulars: versus GFP-expressing plasmid.

Entries after “also recorded” stand apart in the source; their conditions may differ.

In the case of `CC1(C)C=Cc2c(c3c(c4c(=O)c(-c5ccc(O)c(O)c5)coc24)OC(C)(C)CC3)O1` [isopomiferin], the results for the “phosphorylation of S6K (P70^S6K)” value in data set [1] and in data set [1] (listed as Isopomiferin) were “completely inhibited phosphorylation of S6K protein” and “inhibited phosphorylation of P70^S6K”, respectively. The solubility result in [2] was “not soluble in aqueous buffers”. For the same compound, the “pAKT accumulation / AKT (Ser473) phosphoactivation” value was “blocked pAKT accumulation in presence of EGF treatment” in [3] and “inhibited phosphorylation of P70^S6K, as well as the IGF1-induced phosphoactivation of AKT (Ser473)” in data set [3] (listed as Isopomiferin). Moreover, the “Cancer Hallmarks gene set enrichment (MYC Targets, E2F Targets, G2M Checkpoint)” value in data set [4] was “suppressed the MYC targets gene set; also recorded: suppressed by isopomiferin treatment in a time- and dose-dependent manner”. Besides, in [5], the “MYCN transcript abundance (RT-qPCR)” value is reported as “transcript abundance decreased in a time-dependent manner”.
As for `CC(C)=CCc1c2c(c3occ(-c4ccc(O)c(O)c4)c(=O)c3c1O)C=CC(C)(C)O2` [pomiferin], the “compound remaining in mouse plasma” value in data set [6] is “approximately 75%”. In data set [7], the “induction of apoptosis (PARP and caspase3 cleavage)” value was “more potent inducer of apoptosis than CX-4945”. In addition, in data set [8], the “effect on the MYCN MR signature (VIPER of RNASeq)” value is “had the strongest effect on the MYCN MR signature”. Moreover, the “potency in transformed cells relative to non-transformed cells” value in [9] was greater than 10 fold. Further, the “resistance conferred by mutant CK2 isoform” value in data set [10] is recorded as “modest resistance”.

The values are drawn from US20220119399A1, “COMPOUNDS AND COMPOSITIONS THAT CAUSE MYCN AND/OR CMYC DEGRADATION AND METHODS OF USE THEREOF” (THE TRUSTEES OF COLUMBIA UNIVERSITY IN THE CITY OF NEW YORK, priority 2018, published 2022).
